Experiments:
Panc-1 cells = assay: Cell cycle measurement by flow cytometry; type: cell-based, human; conditions: for cell cycle distribution, G1 / cell cycle distribution, G2/M / cell cycle distribution, S: 24 h
Protocol: (§1) To determine the effect of KCN1 on the cell cycle, cells (2–3×10^5) were exposed to the test compounds (0, 5, 12.5 or 50 µM) and incubated for 24 h prior to analysis. Cells were trypsinized, washed with PBS, and fixed in 1.5 mL of 95% ethanol at 4°C overnight, followed by incubation with RNAse and staining with propidium iodide (Sigma). The DNA content was determined by flow cytometry, [47].

HPAC cells = assay: Cell cycle measurement by flow cytometry; type: cell-based, human; conditions: 24 h
Protocol: as §1

BxPC3 cells = assay: Cell cycle measurement by flow cytometry; type: cell-based, human; conditions: for cell cycle distribution, G1 / cell cycle distribution, G2/M / cell cycle distribution, S: 24 h
Protocol: as §1

Mia Paca-2 cells = assay: Cell cycle measurement by flow cytometry; type: cell-based, human; conditions: for cell cycle distribution, G1 / cell cycle distribution, G2/M / cell cycle distribution, S: 24 h
Protocol: as §1

[1] = Plasma protein binding assay (ultrafiltration); type: in vitro ADME; conditions: mouse plasma
Protocol: The extent to which KCN1 was bound by mouse plasma proteins was assessed by a previously described method involving the use of a micro-ultrafiltration system. Samples of mouse plasma containing KCN1 at concentrations of 1.0 and 10 µM were maintained at 37°C for 1 h. Controls were prepared using methanol in place of plasma. From each of these preparations, a portion was taken and placed in a sample reservoir of an Amicon Centrifree® ultrafiltration system (Millipore Co., Bedford, MA). The filter systems were centrifuged at 2,000 × g until the reservoirs were dry. From each sample, triplicate portions were taken for analysis by HPLC. The amounts present in the filtrate were designated as “free drug” (F). The concentrations of the unfiltered solutions were also determined by triplicate analyses. This amount represented the “total drug” concentration (T). The amount bound to the filter (X) was also considered. The percentage of KCN1 bound to plasma proteins was calculated by the following formula: % bound = [(T-F-X)/T]×100.

Structure (SMILES): COc1ccc(S(=O)(=O)N(Cc2ccc3c(c2)C=CC(C)(C)O3)c2ccccc2)cc1OC [KCN1, 3,4-dimethoxy-N-[(2,2-dimethyl-2H-chromen-6-yl)methyl]-N-phenylbenzenesulfonamide]
- cell cycle distribution, G1 (Panc-1 cells; Panc-1, 5 µM): 40.3±2.2
- cell cycle distribution, G2/M (Panc-1 cells; Panc-1, 5 µM): 30.9±0.8
- cell cycle distribution, S (Panc-1 cells; Panc-1, 5 µM): 28.8±3.2
- cell cycle distribution, G1 (Panc-1 cells; Panc-1, 12.5 µM): 49.8±0.8
- cell cycle distribution, G2/M (Panc-1 cells; Panc-1, 12.5 µM): 28.8±1.6
- cell cycle distribution, S (Panc-1 cells; Panc-1, 12.5 µM): 21.4±0.9
- cell cycle distribution, G1 (Panc-1 cells; Panc-1, 50 µM): 53.3±2.3
- cell cycle distribution, G2/M (Panc-1 cells; Panc-1, 50 µM): 29.1±1.4
- cell cycle distribution, S (Panc-1 cells; Panc-1, 50 µM): 17.6±0.9
- concentration at which G1 arrest begins (Panc-1 cells; Panc-1, 24 h): 12.5 µM
- cell cycle distribution, G1 (HPAC cells; 5 µM): 62.1±4.9
- cell cycle distribution, G2/M (HPAC cells; 5 µM): 11.8±1.2
- cell cycle distribution, S (HPAC cells; 5 µM): 26.1±3.8
- cell cycle distribution, G1 (HPAC cells; 12.5 µM): 66.8±1.6
- cell cycle distribution, G2/M (HPAC cells; 12.5 µM): 10.9±1.3
- cell cycle distribution, S (HPAC cells; 12.5 µM): 22.4±1.6
- cell cycle distribution, G1 (HPAC cells; 50 µM): 68.8±2.7
- cell cycle distribution, G2/M (HPAC cells; 50 µM): 11.5±1.4
- cell cycle distribution, S (HPAC cells; 50 µM): 19.7±1.4
- concentration at which G1 arrest begins (HPAC cells): 5 µM
- cell cycle distribution, G1 (BxPC3 cells; BXPC3, 5 µM): 52.9±4.1
- cell cycle distribution, G2/M (BxPC3 cells; BXPC3, 5 µM): 26.4±1.3
- cell cycle distribution, S (BxPC3 cells; BXPC3, 5 µM): 20.8±3.8
- cell cycle distribution, G1 (BxPC3 cells; BXPC3, 12.5 µM): 65.1±3.5
- cell cycle distribution, G2/M (BxPC3 cells; BXPC3, 12.5 µM): 17.4±1.9
- cell cycle distribution, S (BxPC3 cells; BXPC3, 12.5 µM): 17.5±2.1
- cell cycle distribution, G1 (BxPC3 cells; BXPC3, 50 µM): 70.8±2.0
- cell cycle distribution, G2/M (BxPC3 cells; BXPC3, 50 µM): 15.5±1.7
- cell cycle distribution, S (BxPC3 cells; BXPC3, 50 µM): 13.7±0.9
- concentration at which G1 arrest begins (BxPC3 cells; BxPC3, 24 h): 5 µM
- cell cycle distribution, G1 (Mia Paca-2 cells; Mia Paca-2, 5 µM): 50.4±3.6
- cell cycle distribution, G2/M (Mia Paca-2 cells; Mia Paca-2, 5 µM): 31.6±1.9
- cell cycle distribution, S (Mia Paca-2 cells; Mia Paca-2, 5 µM): 18.0±0.9
- cell cycle distribution, G1 (Mia Paca-2 cells; Mia Paca-2, 12.5 µM): 55.2±1.2
- cell cycle distribution, G2/M (Mia Paca-2 cells; Mia Paca-2, 12.5 µM): 24.6±0.9
- cell cycle distribution, S (Mia Paca-2 cells; Mia Paca-2, 12.5 µM): 20.2±1.7
- cell cycle distribution, G1 (Mia Paca-2 cells; Mia Paca-2, 50 µM): 58.9±3.9
- cell cycle distribution, G2/M (Mia Paca-2 cells; Mia Paca-2, 50 µM): 20.3±1.1
- cell cycle distribution, S (Mia Paca-2 cells; Mia Paca-2, 50 µM): 20.8±1.5
- concentration at which G1 arrest begins (Mia Paca-2 cells; Mia Paca-2, 24 h): 5 µM
- binding to plasma proteins ([1]; 1.0 µM): 90.96%
- binding to plasma proteins ([1]; 10.0 µM): 99.32%

From publication PMC3441526, “KCN1, a Novel Synthetic Sulfonamide Anticancer Agent: In Vitro and In Vivo Anti-Pancreatic Cancer Activities and Preclinical Pharmacology” (PLoS ONE, 2012)
